One assay deals with SSTR2. Put plainly: Differential expression of SSTR2 (qRT-PCR) in iPSC generated pituitary organoids. It counts as cell-based, human. As to conditions: for SSTR2 induction relative to SSTR5: PitNET organoids, summary; for induction in SSTR2 expression, mifepristone compared to relacorilant / expression of SSTR2: iPSC organoids; for induction in SSTR2 expression, mifepristone compared to relacorilant: 500 nM each, FIG. 5A; for expression of SSTR2: 500 nM, vs vehicle. The procedure: (§1) Sonic Hedgehog (SHH) was withdrawn from the organoid growth media 16 hours prior to treatment. The experimental treatment groups included: vehicle (Veh), mifepristone (500 nM, Selleckchem S2606), GANT61 (5 μM, Stemcell Technologies 73692), ketoconazole (Keto, 10 μM, Selleckchem S1353), pasireotide (Pas, 100 nM, Target Mol TP2207-SB001), octreotide (Oct, 100 nM, Selleckchem P1017), mifepristone plus GANT61, mifepristone plus Keto, mifepristone plus Pas, relacorilant (500 nM, Corcept Therapeutics CORT125134), relacorilant plus Pas, relacorilant plus Oct, or dexamethasone (Dexa, 100 nM, SIGMA S4902). In the combination treatments, cultures were pretreated with the GANT61, Keto, Pas or Oct for 2 hours prior to treatment with mifepristone or Rela. PitNET tissue derived organoids hPITO36, hPITO37, hPITO38, hPITO39, and hPITO40 were treated with the following experimental conditions: Vehicle (1), pasireotide (2), relacorilant (3), relacorilant & pasireotide (4), mifepristone (5), mifepristone & pasireotide (6). The IC50 values used for each hPITO line for each drug were determined based on dose responses (FIG. 12). All organoid cultures were treated for 48 hours prior to analysis.
(§2) RNA was extracted from PitNET tissue or iPSC generated organoids using TRI Reagent® (Molecular Research Center Inc TR118) and the High Capacity cDNA Reverse Transcription Kit (Applied Biosystems, Foster City, CA) was used for cDNA synthesis of RNA following the recommended protocol. For each sample, 60 ng RNA was reverse transcribed to yield approximately […] total cDNA that was then used for the qRT-PCR. Pre-designed real-time polymerase chain reaction assays were purchased for the following genes: TPit (Thermo Fisher Scientific 4331182 Hs00193027), SF1 (Thermo Fisher Scientific 4331182 Hs00610436), SSTR2 (Thermo Fisher Scientific 4331182 Hs00265624_s1), SSTR5 (Thermo Fisher Scientific 4331182 Hs00990407_s1), POMC (Thermo Fisher Scientific 4331182 Hs01596743_ml), hPRT (Thermo Fisher Scientific 4331182 Hs02800695_ml), and FKBP5 (Thermo Fisher Scientific 4331182 Hs01561006_m1). Polymerase chain reaction amplifications were performed in a total volume of 20 μL containing 20× TaqMan Expression Assay primers, 2× TaqMan Universal Master Mix (Applied Biosystems, TaqMan® Gene Expression Systems), and cDNA template. Each polymerase chain reaction amplification was performed in triplicate wells in a StepOne Real-Time PCR System (Applied Biosystems) by using the following conditions: 500C 2 minutes, 95° C. 10 minutes, 95° C. 15 seconds (denature) and 60° C. 1 minute (anneal/extend) for 40 cycles. Fold change was calculated as the following: (Ct-Ct high)=n target, 2ntarget/2nHPRT=fold change where Ct=threshold cycle. The results were expressed as average fold change in or differential gene expression relative to control, with HPRT used as an internal control according to Livak and Schmittgen.
Background: Real-time PCR tracks product formation cycle by cycle.

For a further assay, the system named is iPSC^ctrl organoids. Put plainly: ACTH secretion ELISA, iPSCctrl organoids. It counts as cell-based, human. As to conditions: 500 nM, 48 h, FIG. 6G. The method, then: as §1
(§3) Organoid conditioned media was collected and ACTH secretion using an ELISA according to the manufacturer's protocol (Novus Biologicals Human ACTH ELISA Kit NBP2-66401). The optical density was measured at a wavelength of 450 nm, and ACTH concentration (pg/mL) was interpolated using a standard curve with a 4-parameter logistic regression analysis using GraphPad Prism (v9.3.1).
On the technique in general: In an ELISA, binding on a coated surface is turned into a signal by an enzyme label.

For assay [1], the system named is iPSC^USP48MV organoids. Put plainly: ACTH secretion ELISA, iPSCUSP48 organoids. It counts as cell-based, human. As to conditions: text: iPSCUSP48MI; FIG. 7G: iPSCUSP48MV; 500 nM, 48 h. The method, then:
as §1, §3

Another assay deals with ACTH. Kind of assay: Spectral flow cytometry, ACTH positive cells, iPSCUSP48MV organoids. As to conditions: 48 h, FIGS. 8C, G. It counts as cell-based, human. The procedure:
as §1
The multicolor flow cytometry antibody panel was designed using the Cytek® Full Spectrum Viewer online tool to calculate the similarity index. Organoids were harvested in cold Serum-Free Defined Medium media and incubated with Zombie (BioLegend 423107, 1:100) for 15 minutes in the dark at room temperature, followed by incubation with fluorochrome-conjugated/unconjugated primary surface or cytoplasmic antibodies (Table 6) at 4° C. for 30 minutes. Cells were then washed with Cell Staining Buffer (BioLegend 420-201) and incubated at 4° C. for 30 minutes with secondary antibodies (Table 6). Cells were fixed using Cytofix/Cytoperm™ Fixation/Permeabilization Solution (BD Biosciences 554714) and washed with Fixation/Permeabilization wash buffer according to the recommended protocol. […] Data was acquired using the Cytek® Aurora, analyzed using Cytobank Premium software (Beckman Coulter).
(In general: In flow cytometry, cells or beads pass a laser one at a time.)

Assay [2] deals with iPSC^USP48MV organoids. Kind of assay: Spectral flow cytometry, Zombie positive cells (cell death), iPSCUSP48MV organoids. It counts as cell-based, human. As to conditions: 48 h, FIGS. 8D. The procedure: as §1, with “All organoid cultures were treated for 48 hours prior to analysis.” left out
The multicolor flow cytometry antibody panel was designed using the Cytek® Full Spectrum Viewer online tool to calculate the similarity index. […] Data was acquired using the Cytek® Aurora, analyzed using Cytobank Premium software (Beckman Coulter).

The subject of the next assay is FKBP5. Kind of assay: FKBP5 expression (GR target gene, qRT-PCR) in PitNET organoids. It counts as cell-based, human. As to conditions: 48 h, FIG. 16A-C; for differential expression of FKBP5: PitNET organoids (iPSCctrl, iPSCUSP48MV, iPSCUSP8). The method, then:
as §1
as §2, with “10 minutes, 95° C. 15 seconds (denature) and 60° C. 1 minute (anneal/extend) for 40 cycles.” left out

In the next assay the test system is PitNET organoids. Kind of assay: ACTH secretion from PitNET (summary). It counts as cell-based, human. The procedure: as §1, with “PitNET tissue derived organoids hPITO36, hPITO37, hPITO38, hPITO39, and hPITO40 were treated with the following experimental conditions: Vehicle (1), pasireotide (2), relacorilant (3), relacorilant & pasireotide (4), mifepristone (5), mifepristone & pasireotide (6).” left out, “All organoid cultures were treated for 48 hours prior to analysis.” left out
as §3

Assay [3] has as its system glucocorticoid receptor (GR). As to conditions: cited from earlier work.
The next assay concerns estrogen receptor. As to conditions: cited from earlier work.
A further assay concerns androgen receptor. As to conditions: cited from earlier work.
In assay [4] the test system is pancreatic cancer cell lines. As to conditions: in vitro; cited from earlier work.
Assay [5] deals with ovarian cancer cell lines. As to conditions: in vitro; cited from earlier work.

“Also recorded” adds a separate entry of the source. Like-named read-outs stand apart in the source and are kept apart here.

For the compound `CC#C[C@]1(O)CC[C@H]2[C@@H]3CCC4=CC(=O)CCC4=C3[C@@H](c3ccc(N(C)C)cc3)C[C@@]21C` [mifepristone, 11β-(4-dimethylaminophenyl)-17ß-hydroxy-17α-(1-propynyl)-estra-4,9-dien-3-one], the figures for the “SSTR2 induction relative to SSTR5” value in the assay on SSTR2 and with SSTR2 (listed as Mifepristone) were “predominantly induced SSTR2 expression; also recorded: significantly greater induction in SSTR2 than SSTR5” and “induces SSTR2 with greater magnitude compared to SSTR5”, respectively. The “induction in SSTR2 expression, mifepristone compared to relacorilant” value in the assay on SSTR2 (48 h) was “preferentially induced the expression of SSTR2”; with SSTR2 (48 h, listed as Mifepristone), “significantly greater induction in SSTR2 expression when compared to relacorilant”. Besides, in the assay with SSTR2 (48 h), the “expression of SSTR2” value is listed as “significant induction; also recorded: significantly induced the expression”. Moreover, the “differential expression of SSTR2” value in the assay on SSTR2 (iPSCctrl organoids, compound alone, 48 h, FIG. 5C, D) is recorded as “significantly induced”. The “magnitude of ACTH secretion, mifepristone vs relacorilant” value in the assay on iPSC^ctrl organoids and in the assay with iPSC^USP48MV organoids [1] was “significantly greater than the effect of relacorilant” each time. In addition, the “ACTH positive cells / ACTH expression” value with ACTH was “significant induction in the number of ACTH positive cells; also recorded: significantly increased the ACTH expression levels”. In addition, the “cell death (Zombie positive cells)” value with iPSC^USP48MV organoids [2] is “not observed”. In addition, the “differential expression of FKBP5” value in the assay on FKBP5 was “significantly reduced”. Also, the “ACTH secretion from PitNET organoids” value with PitNET organoids was “preferentially induced the expression of SSTR2, ACTH secretion and PitNET organoid proliferation; also recorded: significantly increased ACTH secretion from PitNET both in vivo and in vitro”. For the same compound, the “binding to the glucocorticoid receptor” value in assay [3] is “competes with cortisol binding at the GR”; in assay [3] (listed as Mifepristone) it was “typically with high affinity”.

As to `Cn1cc(S(=O)(=O)N2CCC3=Cc4c(cnn4-c4ccc(F)cc4)C[C@]3(C(=O)c3cc(C(F)(F)F)ccn3)C2)cn1` [relacorilant, (R)-(1-(4-fluorophenyl)-6-((1-methyl-1H-pyrazol-4-yl)sulfonyl)-4,4a,5,6,7,8-hexahydro-1H-pyrazolo[3,4-g]isoquinolin-4a-yl) (4-(trifluoromethyl)pyridin-2-yl) methanone], the “expression of SSTR2” value in the assay with SSTR2 (48 h) is given as “significant induction; also recorded: significantly induced the expression”. For the same compound, the “ACTH positive cells / ACTH expression” value in the assay on ACTH is “did not significantly increase the number of ACTH-positive cells”; in the assay on ACTH (listed as Relacorilant), “did not significantly increase ACTH”. The “cell death (Zombie positive cells)” value with iPSC^USP48MV organoids [2] is “significant increase in Zombie positive cells”. In addition, in the assay on FKBP5, the “differential expression of FKBP5” value is reported as “significantly reduced”. Besides, the “magnitude of FKBP5 inhibition, compared to mifepristone” value in the assay on FKBP5 (PitNET organoids) is “significantly greater”. Moreover, the “ACTH secretion from PitNET organoids” value in the assay on PitNET organoids was “without significant stimulation of ACTH secretion; also recorded: without an increase in ACTH secretion”. In addition, in the assay on estrogen receptor, the “binding to the estrogen receptor” value is recorded as “no detectable binding”. Also, the “binding to the androgen receptor” value with androgen receptor is “no detectable binding”. In addition, the apoptosis entry in assay [4] and in assay [5] was “induces apoptosis” throughout.

Values taken from patent US20260325504A1, “Genetically Engineered Human Pituitary Corticotroph Tumor Organoids Exhibit Divergent Responses to Selective Glucocorticoid Receptor Modulators” (Corcept Therapeutics Incorporated, priority 2022, published 2026).
